{"source": "ChEMBL document CHEMBL1201862", "about": "“PubChem BioAssay data set” (2004)", "experiment_in_all_cases": "NCI-60 cell line screen, 48 h", "key": {"BT-549": {"test_system": "BT-549"}, "CAKI-1": {"test_system": "CAKI-1"}, "EKVX": {"test_system": "EKVX"}, "HCT-116": {"test_system": "HCT-116"}, "HCT-15": {"test_system": "HCT-15"}, "HL-60": {"test_system": "HL-60"}, "HOP-62": {"test_system": "HOP-62"}, "IGROV-1": {"test_system": "IGROV-1"}, "M14": {"test_system": "M14"}, "MCF7": {"test_system": "MCF7"}, "MDA-MB-231": {"test_system": "MDA-MB-231"}, "MDA-N": {"test_system": "MDA-N"}, "NCI-H460": {"test_system": "NCI-H460"}, "RXF 393": {"test_system": "RXF 393"}, "SK-MEL-28": {"test_system": "SK-MEL-28"}, "SK-MEL-5": {"test_system": "SK-MEL-5"}, "SNB-19": {"test_system": "SNB-19"}, "SNB-75": {"test_system": "SNB-75"}, "T47D": {"test_system": "T47D"}, "U-251": {"test_system": "U-251"}}, "note": "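The compound was tested at five concentrations on cells cultured in 96-well plates, with a 48-hour exposure period. GI50: concentration for 50% inhibition of growth.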 Calls of active or inactive are those of the source. Rule as the data show it: active = GI50 up to about 1.1 µM and inactive = higher."}
{"smiles": "O=C1C(NS(=O)(=O)c2ccccc2)=C(n2ccnc2)C(=O)c2ccccc21", "values": [{"measurement": "GI50", "setting": "BT-549", "result": "> 100 µM (inactive)"}, {"measurement": "GI50", "setting": "CAKI-1", "result": "> 100 µM (inactive)"}, {"measurement": "GI50", "setting": "EKVX", "result": "> 100 µM (inactive)"}, {"measurement": "GI50", "setting": "HCT-116", "result": "> 100 µM (inactive)"}, {"measurement": "GI50", "setting": "HCT-15", "result": "> 100", "unit": "µM"}, {"measurement": "GI50", "setting": "HL-60", "result": "> 100 µM (inactive)"}, {"measurement": "GI50", "setting": "HOP-62", "result": "> 100 µM (inactive)"}, {"measurement": "GI50", "setting": "IGROV-1", "result": "> 100 µM (inactive)"}, {"measurement": "GI50", "setting": "M14", "result": "> 100 µM (inactive)"}, {"measurement": "GI50", "setting": "MCF7", "result": "> 100 µM (inactive)"}, {"measurement": "GI50", "setting": "MDA-MB-231", "result": "> 100 µM (inactive)"}, {"measurement": "GI50", "setting": "MDA-N", "result": "> 100 µM (inactive)"}, {"measurement": "GI50", "setting": "NCI-H460", "result": "> 100 µM (inactive)"}, {"measurement": "GI50", "setting": "RXF 393", "result": "> 100 µM (inactive)"}, {"measurement": "GI50", "setting": "SK-MEL-28", "result": "> 100 µM (inactive)"}, {"measurement": "GI50", "setting": "SK-MEL-5", "result": "> 100 µM (inactive)"}, {"measurement": "GI50", "setting": "SNB-19", "result": "> 100 µM (inactive)"}, {"measurement": "GI50", "setting": "SNB-75", "result": "4.44 µM (inactive)"}, {"measurement": "GI50", "setting": "T47D", "result": "> 100 µM (inactive)"}, {"measurement": "GI50", "setting": "U-251", "result": "> 100 µM (inactive)"}]}
{"smiles": "CC(=O)OCC1OC(Oc2cc(C)c(O)cc2C/C=C(\\C)CC/C=C(\\C)CC(=O)CC(C)C)C(O)C(OC(C)=O)C1OC(C)=O", "note": "(stereo not given)", "values": [{"measurement": "GI50", "setting": "BT-549", "result": "10.6 µM (inactive)"}, {"measurement": "GI50", "setting": "CAKI-1", "result": "30.3 µM (inactive)"}, {"measurement": "GI50", "setting": "EKVX", "result": "4.6 µM (inactive)"}, {"measurement": "GI50", "setting": "HCT-116", "result": "18.2 µM (inactive)"}, {"measurement": "GI50", "setting": "HCT-15", "result": 14.3, "unit": "µM"}, {"measurement": "GI50", "setting": "HL-60", "result": "10.8 µM (inactive)"}, {"measurement": "GI50", "setting": "HOP-62", "result": "11.4 µM (inactive)"}, {"measurement": "GI50", "setting": "IGROV-1", "result": "29.4 µM (inactive)"}, {"measurement": "GI50", "setting": "M14", "result": "5.22 µM (inactive)"}, {"measurement": "GI50", "setting": "MCF7", "result": "12.8 µM (inactive)"}, {"measurement": "GI50", "setting": "MDA-MB-231", "result": "11.2 µM (inactive)"}, {"measurement": "GI50", "setting": "MDA-N", "result": "18 µM (inactive)"}, {"measurement": "GI50", "setting": "NCI-H460", "result": "13.7 µM (inactive)"}, {"measurement": "GI50", "setting": "RXF 393", "result": "9.77 µM (inactive)"}, {"measurement": "GI50", "setting": "SK-MEL-28", "result": "27.4 µM (inactive)"}, {"measurement": "GI50", "setting": "SK-MEL-5", "result": "8.13 µM (inactive)"}, {"measurement": "GI50", "setting": "SNB-19", "result": "7.93 µM (inactive)"}, {"measurement": "GI50", "setting": "SNB-75", "result": "> 50 µM (inactive)"}, {"measurement": "GI50", "setting": "T47D", "result": "9.42 µM (inactive)"}, {"measurement": "GI50", "setting": "U-251", "result": "13.6 µM (inactive)"}]}
{"smiles": "CC(=O)N1NC(c2ccccc2)=NC(=O)C1c1cc(C)c(O)c(C)c1", "note": "(stereo not given)", "values": [{"measurement": "GI50", "setting": "BT-549", "result": "23 µM (inactive)"}, {"measurement": "GI50", "setting": "CAKI-1", "result": "> 100 µM (inactive)"}, {"measurement": "GI50", "setting": "EKVX", "result": "34 µM (inactive)"}, {"measurement": "GI50", "setting": "HCT-116", "result": "21.2 µM (inactive)"}, {"measurement": "GI50", "setting": "HCT-15", "result": 40, "unit": "µM"}, {"measurement": "GI50", "setting": "HL-60", "result": "> 100 µM (inactive)"}, {"measurement": "GI50", "setting": "HOP-62", "result": "16.2 µM (inactive)"}, {"measurement": "GI50", "setting": "IGROV-1", "result": "26.9 µM (inactive)"}, {"measurement": "GI50", "setting": "M14", "result": "71.9 µM (inactive)"}, {"measurement": "GI50", "setting": "MCF7", "result": "21.2 µM (inactive)"}, {"measurement": "GI50", "setting": "MDA-MB-231", "result": "21.7 µM (inactive)"}, {"measurement": "GI50", "setting": "MDA-N", "result": "54.6 µM (inactive)"}, {"measurement": "GI50", "setting": "NCI-H460", "result": "31.1 µM (inactive)"}, {"measurement": "GI50", "setting": "RXF 393", "result": "17.5 µM (inactive)"}, {"measurement": "GI50", "setting": "SK-MEL-28", "result": "54.6 µM (inactive)"}, {"measurement": "GI50", "setting": "SK-MEL-5", "result": "20.3 µM (inactive)"}, {"measurement": "GI50", "setting": "SNB-19", "result": "21.2 µM (inactive)"}, {"measurement": "GI50", "setting": "SNB-75", "result": "19.9 µM (inactive)"}, {"measurement": "GI50", "setting": "T47D", "result": "22.4 µM (inactive)"}, {"measurement": "GI50", "setting": "U-251", "result": "19.2 µM (inactive)"}]}
{"smiles": "C=CCc1cccc2cc(C(=O)Nc3ccc(C)cc3)c(=N)oc12", "values": [{"measurement": "GI50", "setting": "BT-549", "result": "> 100 µM (inactive)"}, {"measurement": "GI50", "setting": "CAKI-1", "result": "> 100 µM (inactive)"}, {"measurement": "GI50", "setting": "EKVX", "result": "> 100 µM (inactive)"}, {"measurement": "GI50", "setting": "HCT-116", "result": "> 100 µM (inactive)"}, {"measurement": "GI50", "setting": "HCT-15", "result": "> 100", "unit": "µM"}, {"measurement": "GI50", "setting": "HL-60", "result": "> 100 µM (inactive)"}, {"measurement": "GI50", "setting": "HOP-62", "result": "> 100 µM (inactive)"}, {"measurement": "GI50", "setting": "IGROV-1", "result": "> 100 µM (inactive)"}, {"measurement": "GI50", "setting": "M14", "result": "> 100 µM (inactive)"}, {"measurement": "GI50", "setting": "MCF7", "result": "> 100 µM (inactive)"}, {"measurement": "GI50", "setting": "MDA-MB-231", "result": "> 100 µM (inactive)"}, {"measurement": "GI50", "setting": "MDA-N", "result": "> 100 µM (inactive)"}, {"measurement": "GI50", "setting": "NCI-H460", "result": "> 100 µM (inactive)"}, {"measurement": "GI50", "setting": "RXF 393", "result": "> 100 µM (inactive)"}, {"measurement": "GI50", "setting": "SK-MEL-28", "result": "> 100 µM (inactive)"}, {"measurement": "GI50", "setting": "SK-MEL-5", "result": "> 100 µM (inactive)"}, {"measurement": "GI50", "setting": "SNB-19", "result": "> 100 µM (inactive)"}, {"measurement": "GI50", "setting": "SNB-75", "result": "> 100 µM (inactive)"}, {"measurement": "GI50", "setting": "T47D", "result": "> 100 µM (inactive)"}, {"measurement": "GI50", "setting": "U-251", "result": "> 100 µM (inactive)"}]}
